# Target: T1, RXRα (Homo sapiens, UniProt P19793)
# T1 sequence (P19793 227-458 limits assumed): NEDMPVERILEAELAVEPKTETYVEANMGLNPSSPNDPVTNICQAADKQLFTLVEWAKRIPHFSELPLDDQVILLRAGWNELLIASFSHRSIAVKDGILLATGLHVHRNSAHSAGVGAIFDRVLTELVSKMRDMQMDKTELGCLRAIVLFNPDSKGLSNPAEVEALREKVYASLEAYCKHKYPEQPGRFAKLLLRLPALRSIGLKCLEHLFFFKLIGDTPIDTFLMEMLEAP
# Test: RXRα activation EC50 (Luc and GFP UAS/Gal4 assays)
# Method: UAS/Gal4 assay. Bone marrow cells from UAS-GFP mice [79] were transduced with retroviruses MSCV-Gal4 (DNA binding domain, DBD)—RXRα (ligand binding domain, LBD)—IRES—mCherry. […] Cells were treated, and after 48 h, GFP was measured by flow cytometry.
# Luciferase detection. HEK293T cells were transfected using Lipofectamine 2000 (Invitrogen) [80]. Six hours after transfection, the cells were collected and plated into a 48-well plate in 1% BSA media in biological triplicates and treated with compounds. After 40 h incubation, the cells were harvested and assayed for luciferase (Luc Assay System with Reporter Lysis Buffer, Promega) in a Beckman Coulter LD400 plate reader.
row,Compound,EC50 [nM]
1,"Cc1cc2c(cc1N(C)c1ncc(C(=O)O)cn1)C(C)(C)CCC2(C)C [Compound 24, reference compound]",6.2
2,CCN(c1ccc(C(=O)O)cn1)c1cc2c(cc1C)C(C)(C)OCC2(C)C [Compound 38],23.7
3,Cc1cc2c(cc1N(C)c1ncc(C(=O)O)cn1)C(C)(C)COC2(C)C [Compound 37],405
4,C=CCN(c1ccc(C(=O)O)cn1)c1cc2c(cc1C)C(C)(C)CCC2(C)C [Compound 32],1.8
5,C=C(c1ccc(C(=O)O)cc1)c1cc2c(cc1C)C(C)(C)OCC2(C)C [Compound 26],51
6,C=CCN(c1ncc(C(=O)O)cn1)c1cc2c(cc1C)C(C)(C)CCC2(C)C [Compound 33],5.3
7,"CN(c1ccc2c(c1)C(C)(C)CCC2(C)C)c1ncc(C(=O)O)cn1 [Compound 25, reference compound]",17.8
8,C=CCN(c1ccc(C(=O)O)cc1)c1cc2c(cc1C)C(C)(C)OCC2(C)C [Compound 44],116
9,C=CCN(c1ccc(C(=O)O)cc1)c1cc2c(cc1C)C(C)(C)CCC2(C)C [Compound 34],11.5
10,CCN(c1ccc(C(=O)O)cc1)c1cc2c(cc1C)C(C)(C)OCC2(C)C [Compound 43],23.1
11,Cc1cc2c(cc1N(C)c1ccc(C(=O)O)cc1)C(C)(C)COC2(C)C [Compound 42],87.7
12,C=CCN(c1ccc2c(c1)C(C)(C)CCC2(C)C)c1ncc(C(=O)O)cn1 [Compound 35],0.54
13,Cc1ccc(/C=C/C(=O)O)cc1-c1cc2c(cc1C)C(C)(C)OCC2(C)C [Compound 27],65.3
14,Cc1cc2c(cc1-c1cc(/C=C/C(=O)O)ccc1C(F)(F)F)C(C)(C)COC2(C)C [Compound 28],59.2
15,C=CCN(c1ccc(C(=O)O)cn1)c1cc2c(cc1C)C(C)(C)OCC2(C)C [Compound 40],10.7
16,Cc1cc2c(cc1N(C)c1ccc(C(=O)O)cn1)C(C)(C)CCC2(C)C [Compound 31],5.4
17,Cc1cc2c(cc1-c1cc(/C=C/C(=O)O)ccc1O)C(C)(C)COC2(C)C [Compound 29],3.9
18,C=CCN(c1ncc(C(=O)O)cn1)c1cc2c(cc1C)C(C)(C)OCC2(C)C [Compound 41],143
19,CCN(c1ncc(C(=O)O)cn1)c1cc2c(cc1C)C(C)(C)OCC2(C)C [Compound 39],152
20,Cc1cc2c(cc1N(C)c1ccc(C(=O)O)cn1)C(C)(C)COC2(C)C [Compound 36],75
21,"Cc1cc2c(cc1N(C)c1ccc(C(=O)O)cc1)C(C)(C)CCC2(C)C [Compound 23, reference compound]",8.6
22,Cc1cc2c(cc1-c1coc3cc(C(=O)O)ccc13)C(C)(C)COC2(C)C [Compound 30],> 1000

# Source: publication PMC9782500 (International Journal of Molecular Sciences, 2022)
